Results on three molecules are retold here after US20240385087A1, “METHOD FOR STAINING MITOCHONDRIA” (TOCRIS COOKSON LIMITED, priority 2021, published 2024).

Common to all, as to format: cell-based
For data set [1], the system named is mitochondria in HeLa cells. Description: Time-course live-cell confocal imaging of stained HeLa cells (photostability, localisation, phototoxicity). Conditions: 50 nM for 60 mins; for (photo)-toxicity during prolonged imaging / localisation at mitochondria over time / photostability / signal over time: live imaging every 5 seconds for 240 frames. As to the method: Within this time frame, COMPOUND 1 intensity drops by ˜25% during the imaging period compared to the comparator which drops by 65%.
Data from two samples of COMPOUND 3,measured at different timepoints is overlaid in the graph (right).
(§1) Mitochondrial stains were diluted to working concentrations from 10 mM DMSO stock solutions into DMEM containing 10% FCS and 25 mM HEPES. Solutions were incubated with HeLa cells at 37° C. in a humidified 5% CO2 incubator for the indicated period of time prior to imaging, typically without a washout step (though a washout step can be performed). A Nikon A1R TiE confocal laser scanning microscope equipped with environmental chamber (37° C.) was used for live-cell imaging, employing 561 nm and 640 nm diode laser lines, a Nikon A1R Plan APO VC 60x Oil lens (NA 1.4), pinhole at 1AU. The images were acquired using NIS Elements software and processed using ImageJ.

The test system of a further data set is HeLa cells. Nature of the data set: Optimization of stain concentration for imaging HeLa cells. As to conditions: 50 nM, 60 mins, no washout, same laser power/settings. As to the method: HeLa cells were incubated with the comparator or COMPOUND 1 for 60 mins at indicated doses and imaged at the same laser power/settings. NOTE: no washout step to remove unbound comparator was performed (manufacturer recommends this) to enable direct comparison with COMPOUND 1. Some toxicity is observed with 100 nM of comparator.
as §1

The subject of data set [2] is mitochondria in HeLa cells. Nature of the data set: Mitochondrial localisation and membrane-potential dependence in HeLa cells (oligomycin / CCCP treatment, confocal imaging). The protocol:
as §1

“Also recorded” adds a separate entry of the source.

Take `c1ccc(-c2c3ccc(=[N+]4CCC4)cc-3oc3cc(N4CCC4)ccc23)cc1` [COMPOUND 4, 1-(6-(azetidin-1-yl)-9-phenyl-3H-xanthen-3-ylidene)azetidin-1-ium chloride]: in data set [1], the “(photo)-toxicity during prolonged imaging” value is “no observable phototoxicity effects”, the “localisation at mitochondria over time” value was “remain faithfully localized to mitochondria over the entire imaging period” and the “photostability / signal over time” value was “higher signal retention over time than COMPOUND 3”.

In the case of `C[Si]1(C)C2=CC(=[N+]3CCC3)C=CC2=C(c2ccccc2)c2ccc(N3CCC3)cc21` [COMPOUND 1, 1-(7-(azetidin-1-yl)-5,5-dimethyl-10-phenyldibenzo[b,e]silin-3 (5H)-ylidene)azetidin-1-ium chloride], in the data set on HeLa cells, the imaging result is reported as “excellent results”. In data set [2] (HeLa cells, 50 nM stain for 60 mins, then CCCP 10 μM up to 60 minutes), the “effect of de-polarizing the mitochondrial membrane with CCCP on stain” value is recorded as “dispersion”. Besides, in data set [2] (HeLa cells, 50 nM stain for 60 mins, then Oligomycin 5 μg/mL up to 60 minutes), the “effect of hyper-polarizing the mitochondrial membrane with oligomycin on stain” value is reported as “accumulation”. Further, in data set [2] (mitochondrial stain, due to charge potential across the mitochondrial membrane), the localisation of stain entry was “localizes specifically to the mitochondria”. For the same molecule, in data set [1], the “(photo)-toxicity during prolonged imaging” value is listed as “no apparent toxicity” and the “localisation at mitochondria over time” value is recorded as “remains clearly localized at the mitochondria; also recorded: appears to mark the mitochondria more clearly than COMPOUND 2 over time”. The “drop of normalized intensity during the imaging period” value in data set [1] (live imaging every 5 seconds for 240 frames (20 minutes), 100% = maximum intensity peak) is listed as approximately 25%.

For the molecule `Cc1ccccc1-c1c2ccc(=[N+]3CCC3)cc-2oc2cc(N3CCC3)ccc12` [COMPOUND 3, 1-(6-(azetidin-1-yl)-9-(o-tolyl)-3H-xanthen-3-ylidene)azetidin-1-ium], in data set [1], the “localisation at mitochondria over time” value was “higher non-specific cytoplasmic background (and lower mitochondrial labelling)” and the “photostability / signal over time” value is given as “retention of signal during the first 10 mins of imaging, but then the signal rapidly drops”.
